The nature of data set [1]: The drug is tested on WLS-086 corresponding to human gut metagenome with ENA study accession number: PRJEB37062 and ENA sample accession number: ERS12561752 for biotransformation under anaerobic condition. The drug concentrations were measured over 9 timepoints collected between 0 and 24 hours of incubation by liquid-chromatography-coupled mass spectrometry (LC–MS). As to conditions: 2 µM.

Data set [2] can be described thus: The drug is tested on WLS-038 corresponding to human gut metagenome with ENA study accession number: PRJEB37062 and ENA sample accession number: ERS12561745 for biotransformation under anaerobic condition. The drug concentrations were measured over 9 timepoints collected between 0 and 24 hours of incubation by liquid-chromatography-coupled mass spectrometry (LC–MS). As to conditions: 2 µM.

For data set [3] the following is noted: human gut metagenome, 24 h, 2 µM.
For data set [4] the following is noted: human gut metagenome, 24 h, 2 µM. This is another data set of the same source.
The conditions of data set [5]: human gut metagenome, 24 h, 2 µM. This is another data set of the same source.
The nature of data set [6]: The drug is tested on WLS-052 corresponding to human gut metagenome with ENA study accession number: PRJEB37062 and ENA sample accession number: ERS12561747 for biotransformation under anaerobic condition. The drug concentrations were measured over 9 timepoints collected between 0 and 24 hours of incubation by liquid-chromatography-coupled mass spectrometry (LC–MS). To be noted: 2 µM.

Data set [7] in a line: The drug is tested on Z-010 corresponding to metagenome with ENA study accession number: PRJEB37062 and ENA sample accession number: ERS12561810 for biotransformation under anaerobic condition. The drug concentrations were measured over 9 timepoints collected between 0 and 24 hours of incubation by liquid-chromatography-coupled mass spectrometry (LC–MS). To be noted: 2 µM.

The nature of data set [8]: The drug is tested on Z-017 corresponding to mouse gut metagenome with ENA study accession number: PRJEB37062 and ENA sample accession number: ERS12561816 for biotransformation under anaerobic condition. The drug concentrations were measured over 9 timepoints collected between 0 and 24 hours of incubation by liquid-chromatography-coupled mass spectrometry (LC–MS). To be noted: 2 µM.

For data set [9] the following is noted: human gut metagenome, 24 h, 2 µM. This is another data set of the same source.
The conditions of data set [10]: human gut metagenome, 24 h, 2 µM. The source holds these as a separate data set.
For data set [11] the following is noted: human gut metagenome, 24 h, 2 µM. The source holds these as a separate data set.
The conditions of data set [12]: human gut metagenome, 24 h, 2 µM. This is another data set of the same source.
A short description of data set [13]: The drug is tested on Z-001 corresponding to mouse gut metagenome with ENA study accession number: PRJEB37062 and ENA sample accession number: ERS12561801 for biotransformation under anaerobic condition. The drug concentrations were measured over 9 timepoints collected between 0 and 24 hours of incubation by liquid-chromatography-coupled mass spectrometry (LC–MS). To be noted: 2 µM.

Data set [14] in a line: The drug is tested on WLS-220 corresponding to human gut metagenome with ENA study accession number: PRJEB37062 and ENA sample accession number: ERS12561769 for biotransformation under anaerobic condition. The drug concentrations were measured over 9 timepoints collected between 0 and 24 hours of incubation by liquid-chromatography-coupled mass spectrometry (LC–MS). To be noted: 2 µM.

The conditions of data set [15]: human gut metagenome, 24 h, 2 µM. The source holds these as a separate data set.
A short description of data set [16]: The drug is tested on Z-009 corresponding to pig gut metagenome with ENA study accession number: PRJEB37062 and ENA sample accession number: ERS12561809 for biotransformation under anaerobic condition. The drug concentrations were measured over 9 timepoints collected between 0 and 24 hours of incubation by liquid-chromatography-coupled mass spectrometry (LC–MS). As to conditions: 2 µM.

Data set [17] is described as follows: The drug is tested on Z-024 corresponding to pig gut metagenome with ENA study accession number: PRJEB37062 and ENA sample accession number: ERS12561823 for biotransformation under anaerobic condition. The drug concentrations were measured over 9 timepoints collected between 0 and 24 hours of incubation by liquid-chromatography-coupled mass spectrometry (LC–MS). As to conditions: 2 µM.

Data set [18] can be described thus: The drug is tested on WLS-073 corresponding to human gut metagenome with ENA study accession number: PRJEB37062 and ENA sample accession number: ERS12561749 for biotransformation under anaerobic condition. The drug concentrations were measured over 9 timepoints collected between 0 and 24 hours of incubation by liquid-chromatography-coupled mass spectrometry (LC–MS). As to conditions: 2 µM.

The conditions of data set [19]: human gut metagenome, 24 h, 2 µM. The source holds these as a separate data set.
Data set [20] in a line: The drug is tested on WLS-350 corresponding to human gut metagenome with ENA study accession number: PRJEB37062 and ENA sample accession number: ERS12561789 for biotransformation under anaerobic condition. The drug concentrations were measured over 9 timepoints collected between 0 and 24 hours of incubation by liquid-chromatography-coupled mass spectrometry (LC–MS). As to conditions: 2 µM.

This note sets out measurements from ChEMBL document CHEMBL5724914, “Linking interpersonal differences in gut microbiota composition and drug biotransformation activity” (2024).
Note: call rule not given here.

As for `CCc1nn(CCCN2CCN(c3cccc(Cl)c3)CC2)c(=O)n1CCOc1ccccc1` [NEFAZODONE], the “Bacterial Biotransformation” value in [1] is recorded as “Compound metabolized”; in data set [2], “Compound metabolized”; in data set [3] it was “Compound metabolized”; in data set [4], “Compound NOT metabolized”; in [5], “Compound NOT metabolized”; in data set [6], “Compound metabolized”. In addition, the “Bacterial Biotransformation” value is “Compound NOT metabolized” in [7]; “Compound NOT metabolized” in data set [8]; “Compound NOT metabolized” in data set [9]; “Compound metabolized” in data set [10]; “Compound metabolized” in data set [11]; “Compound NOT metabolized” in data set [12]. In addition, the “Bacterial Biotransformation” value is given as “Compound NOT metabolized” in [13]; “Compound metabolized” in [14]; “Compound NOT metabolized” in [15]; “Compound NOT metabolized” in data set [16]; “Compound NOT metabolized” in data set [17]; “Compound NOT metabolized” in [18]. In addition, the “Bacterial Biotransformation” value is “Compound metabolized” in [19] and “Compound NOT metabolized” in data set [20].
As for `CN1CCOC(c2ccccc2)c2ccccc2C1` (stereo not given) [NEFOPAM], the “Bacterial Biotransformation” value in data set [1] is given as “Compound metabolized”; in data set [2], “Compound NOT metabolized”; in [3], “Compound metabolized”; in data set [4] it was “Compound NOT metabolized”; in data set [5], “Compound NOT metabolized”; in [6] it was “Compound NOT metabolized”. The “Bacterial Biotransformation” value is listed as “Compound NOT metabolized” in data set [7]; “Compound NOT metabolized” in [8]; “Compound NOT metabolized” in [9]; “Compound NOT metabolized” in data set [10]; “Compound NOT metabolized” in data set [11]; “Compound metabolized” in data set [12]. For the same compound, the “Bacterial Biotransformation” value in [13] is “Compound NOT metabolized”; in data set [14], “Compound metabolized”; in data set [15] it was “Compound NOT metabolized”; in data set [16] it was “Compound NOT metabolized”; in data set [17] it was “Compound NOT metabolized”; in data set [18] it was “Compound NOT metabolized”. Moreover, the “Bacterial Biotransformation” value in data set [19] and in data set [20] was “Compound metabolized” in each case.
As for `Cc1ccnc2c1NC(=O)c1cccnc1N2C1CC1` [NEVIRAPINE], the “Bacterial Biotransformation” value is given as “Compound metabolized” in data set [1]; “Compound NOT metabolized” in data set [2]; “Compound metabolized” in data set [3]; “Compound NOT metabolized” in data set [4]; “Compound NOT metabolized” in [5]; “Compound NOT metabolized” in data set [6]. The “Bacterial Biotransformation” value is reported as “Compound NOT metabolized” in data set [7]; “Compound NOT metabolized” in [8]; “Compound NOT metabolized” in data set [9]; “Compound NOT metabolized” in data set [10]; “Compound metabolized” in data set [11]; “Compound NOT metabolized” in data set [12]. The “Bacterial Biotransformation” value in data set [13] is recorded as “Compound NOT metabolized”; in data set [14] it was “Compound metabolized”; in data set [15], “Compound metabolized”; in data set [16], “Compound NOT metabolized”; in data set [17], “Compound NOT metabolized”; in [18], “Compound NOT metabolized”. Besides, the “Bacterial Biotransformation” value in data set [19] and in [20] was “Compound metabolized” throughout.
Regarding `CO[C@]12C[C@@H](COC(=O)c3cncc(Br)c3)CN(C)[C@@H]1Cc1cn(C)c3cccc2c13` [NICERGOLINE], the “Bacterial Biotransformation” value in data set [1] is “Compound metabolized”; in data set [2], “Compound NOT metabolized”; in [3], “Compound NOT metabolized”; in data set [4], “Compound NOT metabolized”; in [5] it was “Compound NOT metabolized”; in [6], “Compound metabolized”. Further, the “Bacterial Biotransformation” value is given as “Compound metabolized” in [7]; “Compound NOT metabolized” in data set [8]; “Compound metabolized” in data set [9]; “Compound NOT metabolized” in data set [10]; “Compound NOT metabolized” in [11]; “Compound NOT metabolized” in [12]. The “Bacterial Biotransformation” value is on record as “Compound metabolized” in data set [13]; “Compound NOT metabolized” in [14]; “Compound NOT metabolized” in data set [15]; “Compound metabolized” in [16]; “Compound metabolized” in [17]; “Compound metabolized” in data set [18]. Moreover, the “Bacterial Biotransformation” value in data set [19] and in [20] was “Compound NOT metabolized” throughout.
Take `COc1ccc2c(c1OC)C(=O)O[C@@H]2[C@H]1c2c(cc3c(c2OC)OCO3)CCN1C` [NOSCAPINE]: the “Bacterial Biotransformation” value in data set [1] was “Compound metabolized”; in data set [2], “Compound NOT metabolized”; in data set [3] it was “Compound metabolized”; in data set [4], “Compound NOT metabolized”; in data set [5], “Compound metabolized”; in data set [6], “Compound NOT metabolized”. Moreover, the “Bacterial Biotransformation” value in [7] is listed as “Compound metabolized”; in data set [8], “Compound NOT metabolized”; in data set [9], “Compound NOT metabolized”; in data set [10], “Compound metabolized”; in [11], “Compound metabolized”; in data set [12] it was “Compound NOT metabolized”. Further, the “Bacterial Biotransformation” value in [13] is reported as “Compound metabolized”; in data set [14], “Compound metabolized”; in data set [15], “Compound NOT metabolized”; in data set [16], “Compound metabolized”; in [17], “Compound metabolized”; in data set [18] it was “Compound metabolized”. Besides, the “Bacterial Biotransformation” value in [19] and in data set [20] was “Compound metabolized” each time.
`CCCc1nc(C(C)(C)O)c(C(=O)OCc2oc(=O)oc2C)n1Cc1ccc(-c2ccccc2-c2nnn[nH]2)cc1` [OLMESARTAN MEDOXOMIL]: the “Bacterial Biotransformation” value in data set [1] is “Compound metabolized”; in [2], “Compound metabolized”; in data set [3] it was “Compound NOT metabolized”; in data set [4] it was “Compound metabolized”; in data set [5] it was “Compound NOT metabolized”; in data set [6] it was “Compound metabolized”. The “Bacterial Biotransformation” value in data set [7] is “Compound metabolized”; in data set [8] it was “Compound metabolized”; in [9], “Compound metabolized”; in data set [10], “Compound metabolized”; in data set [11], “Compound NOT metabolized”; in data set [12], “Compound metabolized”. The “Bacterial Biotransformation” value in data set [13], in data set [14], in data set [15], in data set [16], in data set [17] and in data set [18] was “Compound metabolized” throughout. Moreover, the “Bacterial Biotransformation” value is reported as “Compound metabolized” in data set [19] and “Compound NOT metabolized” in data set [20].
